Calls of active or inactive are those of the source.
What was measured:
[1] = target: T1, Beta-lactamase (Pseudomonas aeruginosa, UniProt Q79MP6); assay: inhibition of IMP-1 beta-lactamase activity – biochemical, epi-absorbance, selectivity assay for VIM-2 inhibitor project, dose response (AID 1920)
[2] = target: T1, Beta-lactamase; assay: […] counterscreen for selective VIM-2 inhibitors: dose response biochemical high throughput screening assay to identify inhibitors of IMP-1 metallo-beta-lactamase.
[3] = target: Beta-lactamase (Salmonella choleraesuis (strain SC-B67), UniProt Q5J463); assay: Epi-absorbance-based counterscreen for selective VIM-2 inhibitors: dose response biochemical high throughput screening assay to identify inhibitors of TEM-1 serine-beta-lactamase.
[4] = tested on: Streptococcus sp. 'group A'; assay: Streptococcus pyogenes SK(-)GAS viability under kanamycin – luminescence, BacTiterGlo, confirmation, counter-screen for streptokinase expression inhibitor project, dose response (AID 1900); format: functional, organism-based
[5] = target: T2, Streptokinase A (Streptococcus pyogenes serotype M1, UniProt P10520); assay: viability-normalized secreted streptokinase activity reduction – plasminogen activation absorbance, OD405, dose response (AID 1914); format: functional, Streptococcus pyogenes M1 GAS;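 further: secreted streptokinase activity via plasminogen activation per viability signal from cell pellet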
T2 sequence (P10520 whole entry): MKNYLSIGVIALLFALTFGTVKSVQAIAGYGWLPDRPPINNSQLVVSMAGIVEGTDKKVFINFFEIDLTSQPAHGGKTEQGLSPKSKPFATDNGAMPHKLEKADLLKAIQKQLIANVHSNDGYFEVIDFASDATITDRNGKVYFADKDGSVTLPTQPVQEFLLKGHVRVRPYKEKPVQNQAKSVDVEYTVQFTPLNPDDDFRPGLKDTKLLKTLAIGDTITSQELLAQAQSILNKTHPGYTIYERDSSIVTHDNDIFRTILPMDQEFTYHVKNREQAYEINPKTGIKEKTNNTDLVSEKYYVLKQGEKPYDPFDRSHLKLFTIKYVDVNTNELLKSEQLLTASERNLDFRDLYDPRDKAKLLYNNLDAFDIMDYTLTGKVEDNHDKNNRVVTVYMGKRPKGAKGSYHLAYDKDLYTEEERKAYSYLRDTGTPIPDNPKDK

[6] = target: T3, Small ubiquitin-related modifier 1 (Homo sapiens, UniProt P63165); assay: SUMO1 protein interaction blockers, potency – biochemical, fluorescence polarization, uHTS hits, dose response (AID 624382); format: functional; details: read-out: IC50_Mean
[7] = tested on: Streptococcus; assay: GAS UMAA2166 growth inhibition – luminescence, BacTiterGlo, counter-screen for streptokinase expression inhibitor project, dose response (AID 1915); format: functional, organism-based;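 further: potency for reduction of bacterial viability or growth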
[8] = target: T3, Small ubiquitin-related modifier 1; assay: SUMO1 protein-protein binding blockers, potency – biochemical, FRET, dose response (AID 624383); format: functional; details: read-out: IC50_Mean
[9] = viability loss in HeLa cells – cytotoxicity control for MgcRacGAP inhibitor project, dose response (AID 624300); format: functional
[10] = target: T4, Rac GTPase-activating protein 1 (Homo sapiens, UniProt Q9H0H5); assay: blockers of MgcRacGAP-driven Rac1 GTP hydrolysis – biochemical, ADP Hunter fluorescence, primary and confirmatory, confirmation (AID 624330); format: functional
T4 sequence (Q9H0H5 whole entry): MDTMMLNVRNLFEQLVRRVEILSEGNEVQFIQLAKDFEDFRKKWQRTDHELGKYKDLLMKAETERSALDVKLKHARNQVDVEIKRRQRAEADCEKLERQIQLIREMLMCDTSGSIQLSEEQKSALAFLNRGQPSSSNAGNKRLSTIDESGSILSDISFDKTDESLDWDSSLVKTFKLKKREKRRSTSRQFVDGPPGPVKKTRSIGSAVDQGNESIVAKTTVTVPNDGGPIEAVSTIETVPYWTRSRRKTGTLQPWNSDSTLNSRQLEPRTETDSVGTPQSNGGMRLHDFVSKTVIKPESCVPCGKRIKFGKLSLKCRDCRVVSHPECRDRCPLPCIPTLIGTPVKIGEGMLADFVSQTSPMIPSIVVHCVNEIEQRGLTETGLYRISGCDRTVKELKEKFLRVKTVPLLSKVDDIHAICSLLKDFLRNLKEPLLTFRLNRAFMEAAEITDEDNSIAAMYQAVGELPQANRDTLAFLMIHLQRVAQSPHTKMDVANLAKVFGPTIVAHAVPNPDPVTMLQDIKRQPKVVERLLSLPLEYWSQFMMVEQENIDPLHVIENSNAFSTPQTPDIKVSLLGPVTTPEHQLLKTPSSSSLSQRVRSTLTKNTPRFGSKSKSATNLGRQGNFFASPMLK

[11] = NIH3T3 cell viability loss – ATP luminescence, mouse fibroblasts, counter-screen, dose response (AID 2010); format: functional, cell-based;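 further: cells exposed to compound for about 90 hours before reading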
[12] = microbe, parasite or virus in culture; format: functional; details: Mycobacterium tuberculosis
[13] = Trypanosoma cruzi growth suppression in host cells – NIH3T3 host cells, beta-gal luminescence, confirmation (AID 2044); format: functional, cell-based;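 further: intracellular parasites grown in NIH/3T3 mouse fibroblasts as host cells; luminescent beta-galactosidase reporter signal from transgenic T. cruzi replicating inside host cells; inhibitors lower the luminescence signal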
[14] = target: T5, Ubiquitin-conjugating enzyme E2 N (Homo sapiens, UniProt P61088); format: functional;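 further: Dose-response confirmation in a TR-FRET assay detecting UBC13-driven polyubiquitin chain formation, inhibition measured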
T5 sequence (P61088 whole entry): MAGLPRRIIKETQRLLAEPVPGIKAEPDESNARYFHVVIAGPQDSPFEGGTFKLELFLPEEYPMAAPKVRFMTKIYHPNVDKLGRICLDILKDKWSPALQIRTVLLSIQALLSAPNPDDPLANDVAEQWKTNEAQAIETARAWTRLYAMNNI

[15] = target: T6, Low molecular weight phosphotyrosine protein phosphatase (Homo sapiens, UniProt P24666); format: functional; details: read-out: IC50_Mean
T6 sequence (P24666 whole entry): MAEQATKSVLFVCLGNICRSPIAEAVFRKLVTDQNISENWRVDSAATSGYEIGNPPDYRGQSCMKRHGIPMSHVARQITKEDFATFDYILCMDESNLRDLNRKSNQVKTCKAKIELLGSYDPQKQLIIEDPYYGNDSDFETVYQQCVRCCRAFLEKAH

[16] = target: T6, Low molecular weight phosphotyrosine protein phosphatase; format: functional; details: read-out: IC50_Mean; remark: listed apart in the source
[17] = target: DNA (cytosine-5)-methyltransferase 1 (Homo sapiens, UniProt P26358); assay: inhibition of DNA methylation by DNMT1 – biochemical, fluorescent molecular beacon, confirmation (AID 602386); format: functional
[18] = target: T7, Histone-lysine N-methyltransferase NSD2 (Homo sapiens, UniProt O96028); format: biochemical
T7 sequence (O96028 whole entry): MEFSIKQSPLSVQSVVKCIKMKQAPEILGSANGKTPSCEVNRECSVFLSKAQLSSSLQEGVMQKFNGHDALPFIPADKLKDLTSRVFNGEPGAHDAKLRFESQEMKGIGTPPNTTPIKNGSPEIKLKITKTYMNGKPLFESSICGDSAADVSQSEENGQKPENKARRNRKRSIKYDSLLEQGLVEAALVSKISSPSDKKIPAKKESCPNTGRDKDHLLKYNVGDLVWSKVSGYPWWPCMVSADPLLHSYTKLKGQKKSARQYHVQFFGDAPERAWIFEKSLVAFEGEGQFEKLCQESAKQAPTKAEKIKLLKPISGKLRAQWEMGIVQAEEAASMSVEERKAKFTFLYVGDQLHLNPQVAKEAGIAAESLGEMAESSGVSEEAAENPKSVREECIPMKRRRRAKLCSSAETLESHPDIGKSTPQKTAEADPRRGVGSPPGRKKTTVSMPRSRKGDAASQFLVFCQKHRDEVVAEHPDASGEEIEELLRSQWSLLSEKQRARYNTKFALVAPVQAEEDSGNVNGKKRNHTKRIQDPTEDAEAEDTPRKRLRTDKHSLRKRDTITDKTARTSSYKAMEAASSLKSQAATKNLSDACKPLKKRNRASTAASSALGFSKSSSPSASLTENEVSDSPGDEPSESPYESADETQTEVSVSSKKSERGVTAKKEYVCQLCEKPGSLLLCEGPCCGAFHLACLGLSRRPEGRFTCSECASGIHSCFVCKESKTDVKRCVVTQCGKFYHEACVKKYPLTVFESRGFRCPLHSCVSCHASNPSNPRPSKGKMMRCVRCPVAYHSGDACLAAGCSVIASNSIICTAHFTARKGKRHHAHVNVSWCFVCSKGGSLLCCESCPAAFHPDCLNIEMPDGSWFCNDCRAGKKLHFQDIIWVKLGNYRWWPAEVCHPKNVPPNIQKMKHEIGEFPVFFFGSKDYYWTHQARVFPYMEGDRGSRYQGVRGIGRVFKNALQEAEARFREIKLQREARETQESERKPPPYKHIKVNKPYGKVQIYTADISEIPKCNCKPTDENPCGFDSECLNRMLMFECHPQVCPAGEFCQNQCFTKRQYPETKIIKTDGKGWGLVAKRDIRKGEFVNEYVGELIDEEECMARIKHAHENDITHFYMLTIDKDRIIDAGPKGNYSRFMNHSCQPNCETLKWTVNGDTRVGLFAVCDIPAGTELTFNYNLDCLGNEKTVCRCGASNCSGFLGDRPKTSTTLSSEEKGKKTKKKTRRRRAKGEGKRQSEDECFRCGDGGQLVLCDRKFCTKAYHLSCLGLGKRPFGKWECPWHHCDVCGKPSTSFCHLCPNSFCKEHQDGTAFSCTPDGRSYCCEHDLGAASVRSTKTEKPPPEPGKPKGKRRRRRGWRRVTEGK

[19] = target: Large T antigen (Simian virus 40, UniProt P03070); format: functional, Betapolyomavirus macacae;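 further: Confirmatory-stage PubChem screen for compounds that inhibit SV40 T antigen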
[20] = target: Induced myeloid leukemia cell differentiation protein Mcl-1 (Homo sapiens, UniProt Q07820); format: functional
[21] = target: T8, Fatty acid synthase (Homo sapiens, UniProt P49327); assay: inhibition of human FAS-TE enzyme activity – biochemical, endpoint fluorescence intensity, uHTS hits, dose response (AID 624327); format: functional;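 further: fluorescence from hydrolysis of an O-methyl fluorescein acyl ester substrate by the enzyme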
[22] = target: T8, Fatty acid synthase; assay: inhibition of human FAS-TE enzyme activity – biochemical, kinetic fluorescence intensity, dose response (AID 624326); format: functional;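 further: rate of fluorescence rise from hydrolysis of a fluorogenic O-methyl fluorescein ester substrate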
[23] = target: Photoreceptor-specific nuclear receptor (Homo sapiens, UniProt Q9Y5X4); format: functional, cell-based;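 further: CHO-S cells with Gal4-NCOR and VP16-NR2E3 two-hybrid luciferase reporter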
[24] = non-specific 3'UTR reporter inhibition in Clone20-Shn3RL – cell-based, Renilla luciferase, cherry-picked, counter-screen for Shn3 inhibitor project, dose response (AID 624133); format: functional
[25] = reduction of Shn3 3'UTR-driven luciferase in osteoblasts – cell-based, Clone20 osteoblasts, firefly luciferase, cherry-picked, dose response (AID 624132); format: functional;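 further: firefly luciferase luminescence from reporter carrying the Shn3 3'UTR in osteoblasts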
[26] = loss of viability in HepG2 cells – cell-based, CellTiter-Glo, cherry-picked, cytotoxicity control for Shn3 inhibitor project, dose response (AID 624134); format: functional

T1 sequence (Q79MP6 whole entry): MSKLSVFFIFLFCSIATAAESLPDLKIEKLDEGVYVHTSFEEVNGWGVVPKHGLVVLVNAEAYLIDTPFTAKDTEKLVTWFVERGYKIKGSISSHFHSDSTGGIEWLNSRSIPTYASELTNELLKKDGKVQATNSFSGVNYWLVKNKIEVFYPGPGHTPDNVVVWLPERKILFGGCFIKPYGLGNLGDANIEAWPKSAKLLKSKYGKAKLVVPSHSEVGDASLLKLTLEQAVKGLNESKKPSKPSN
T3 sequence (P63165 whole entry): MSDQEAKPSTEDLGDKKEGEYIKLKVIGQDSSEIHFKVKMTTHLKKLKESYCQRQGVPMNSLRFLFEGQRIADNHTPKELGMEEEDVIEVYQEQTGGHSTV
T8 sequence (P49327 whole entry): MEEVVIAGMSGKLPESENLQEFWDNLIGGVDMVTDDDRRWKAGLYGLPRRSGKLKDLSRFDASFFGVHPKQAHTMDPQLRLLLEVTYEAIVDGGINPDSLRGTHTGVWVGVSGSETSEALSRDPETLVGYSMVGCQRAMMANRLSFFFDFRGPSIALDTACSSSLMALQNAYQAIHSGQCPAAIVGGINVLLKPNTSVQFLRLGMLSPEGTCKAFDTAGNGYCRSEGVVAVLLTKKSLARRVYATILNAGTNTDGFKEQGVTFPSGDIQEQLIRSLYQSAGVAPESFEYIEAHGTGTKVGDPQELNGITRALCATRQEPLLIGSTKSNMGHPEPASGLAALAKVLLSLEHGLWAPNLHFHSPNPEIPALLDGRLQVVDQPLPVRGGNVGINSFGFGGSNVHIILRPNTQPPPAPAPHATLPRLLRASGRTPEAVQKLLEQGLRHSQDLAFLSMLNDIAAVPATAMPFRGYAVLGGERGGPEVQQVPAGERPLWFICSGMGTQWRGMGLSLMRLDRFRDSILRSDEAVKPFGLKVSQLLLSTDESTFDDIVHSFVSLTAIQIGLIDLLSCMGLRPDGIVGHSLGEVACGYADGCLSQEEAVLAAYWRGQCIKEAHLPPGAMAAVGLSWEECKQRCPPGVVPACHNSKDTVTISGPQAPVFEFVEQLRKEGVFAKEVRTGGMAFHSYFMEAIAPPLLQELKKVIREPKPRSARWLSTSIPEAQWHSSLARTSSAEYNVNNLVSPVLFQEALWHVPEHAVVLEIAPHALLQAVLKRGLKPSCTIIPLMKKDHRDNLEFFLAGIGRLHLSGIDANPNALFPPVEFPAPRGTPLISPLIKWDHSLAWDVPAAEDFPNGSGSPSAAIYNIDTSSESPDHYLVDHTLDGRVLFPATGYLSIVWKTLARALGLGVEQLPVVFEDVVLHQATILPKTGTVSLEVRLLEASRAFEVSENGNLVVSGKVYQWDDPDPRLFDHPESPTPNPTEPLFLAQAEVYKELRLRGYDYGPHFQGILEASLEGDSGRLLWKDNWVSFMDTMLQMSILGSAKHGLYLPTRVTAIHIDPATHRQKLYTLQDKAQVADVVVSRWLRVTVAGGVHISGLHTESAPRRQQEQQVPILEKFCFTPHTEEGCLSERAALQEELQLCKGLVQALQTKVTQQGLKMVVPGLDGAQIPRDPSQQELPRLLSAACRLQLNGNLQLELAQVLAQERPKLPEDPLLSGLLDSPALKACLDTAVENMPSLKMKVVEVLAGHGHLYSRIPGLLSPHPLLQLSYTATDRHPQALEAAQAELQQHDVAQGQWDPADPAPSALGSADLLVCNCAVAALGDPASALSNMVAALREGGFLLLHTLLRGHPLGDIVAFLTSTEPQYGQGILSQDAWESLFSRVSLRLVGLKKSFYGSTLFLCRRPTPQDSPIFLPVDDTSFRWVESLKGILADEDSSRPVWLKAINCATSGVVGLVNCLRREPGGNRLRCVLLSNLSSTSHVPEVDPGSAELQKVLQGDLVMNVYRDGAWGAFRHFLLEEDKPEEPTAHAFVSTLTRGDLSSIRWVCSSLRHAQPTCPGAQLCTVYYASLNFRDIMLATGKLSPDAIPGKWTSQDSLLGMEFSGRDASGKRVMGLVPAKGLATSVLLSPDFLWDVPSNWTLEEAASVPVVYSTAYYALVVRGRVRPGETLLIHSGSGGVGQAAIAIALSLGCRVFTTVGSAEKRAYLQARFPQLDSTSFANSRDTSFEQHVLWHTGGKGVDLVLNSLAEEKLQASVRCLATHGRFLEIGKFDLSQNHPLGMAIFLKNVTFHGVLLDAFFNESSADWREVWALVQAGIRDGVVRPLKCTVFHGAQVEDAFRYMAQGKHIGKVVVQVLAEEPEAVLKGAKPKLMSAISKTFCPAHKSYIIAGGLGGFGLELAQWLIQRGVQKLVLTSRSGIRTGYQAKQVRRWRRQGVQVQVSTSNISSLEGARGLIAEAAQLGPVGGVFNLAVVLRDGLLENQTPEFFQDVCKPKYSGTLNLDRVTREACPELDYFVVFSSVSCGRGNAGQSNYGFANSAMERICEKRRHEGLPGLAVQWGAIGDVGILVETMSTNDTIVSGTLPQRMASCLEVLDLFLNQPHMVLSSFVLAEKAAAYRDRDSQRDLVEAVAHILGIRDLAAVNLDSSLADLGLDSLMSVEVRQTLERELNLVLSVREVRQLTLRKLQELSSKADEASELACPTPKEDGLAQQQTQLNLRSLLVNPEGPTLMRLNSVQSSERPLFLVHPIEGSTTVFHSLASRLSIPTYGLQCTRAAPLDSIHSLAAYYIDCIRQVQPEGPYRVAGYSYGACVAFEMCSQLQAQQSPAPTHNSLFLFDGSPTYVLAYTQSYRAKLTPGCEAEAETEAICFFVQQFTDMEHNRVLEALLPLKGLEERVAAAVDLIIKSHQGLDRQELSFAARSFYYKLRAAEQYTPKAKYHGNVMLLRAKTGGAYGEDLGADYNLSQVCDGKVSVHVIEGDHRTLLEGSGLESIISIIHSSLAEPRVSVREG
Beta-lactamase (Salmonella choleraesuis (strain SC-B67), UniProt Q5J463), sequence (Q5J463 whole entry): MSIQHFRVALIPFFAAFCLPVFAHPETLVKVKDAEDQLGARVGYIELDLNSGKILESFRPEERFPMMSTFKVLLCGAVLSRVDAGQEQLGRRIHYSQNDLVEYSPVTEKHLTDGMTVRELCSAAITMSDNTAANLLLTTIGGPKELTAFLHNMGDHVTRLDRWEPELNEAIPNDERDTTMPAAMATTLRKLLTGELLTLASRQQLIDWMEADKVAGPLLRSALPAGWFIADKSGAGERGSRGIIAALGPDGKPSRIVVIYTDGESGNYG
Photoreceptor-specific nuclear receptor, sequence (Q9Y5X4 whole entry, the tested form may be a part): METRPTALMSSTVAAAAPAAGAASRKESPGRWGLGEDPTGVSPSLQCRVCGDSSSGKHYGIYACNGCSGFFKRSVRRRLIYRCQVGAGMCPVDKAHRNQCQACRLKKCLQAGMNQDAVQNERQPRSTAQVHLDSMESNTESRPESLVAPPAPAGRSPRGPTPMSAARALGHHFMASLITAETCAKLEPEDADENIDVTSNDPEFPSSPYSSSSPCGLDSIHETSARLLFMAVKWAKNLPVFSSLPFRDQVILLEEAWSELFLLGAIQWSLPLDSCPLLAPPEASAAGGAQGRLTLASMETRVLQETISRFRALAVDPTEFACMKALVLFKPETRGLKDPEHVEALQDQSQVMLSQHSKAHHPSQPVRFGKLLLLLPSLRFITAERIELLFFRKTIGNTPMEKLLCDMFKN
Induced myeloid leukemia cell differentiation protein Mcl-1, sequence (Q07820 whole entry): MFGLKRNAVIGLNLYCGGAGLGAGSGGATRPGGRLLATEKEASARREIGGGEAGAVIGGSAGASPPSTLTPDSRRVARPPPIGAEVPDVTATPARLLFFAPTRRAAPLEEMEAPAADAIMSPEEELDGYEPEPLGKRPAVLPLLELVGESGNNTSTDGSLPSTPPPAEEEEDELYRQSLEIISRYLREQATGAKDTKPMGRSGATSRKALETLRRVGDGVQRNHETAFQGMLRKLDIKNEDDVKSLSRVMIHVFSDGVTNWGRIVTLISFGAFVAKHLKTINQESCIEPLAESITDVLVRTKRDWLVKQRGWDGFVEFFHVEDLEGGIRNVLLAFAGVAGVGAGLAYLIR
Large T antigen, sequence (P03070 whole entry): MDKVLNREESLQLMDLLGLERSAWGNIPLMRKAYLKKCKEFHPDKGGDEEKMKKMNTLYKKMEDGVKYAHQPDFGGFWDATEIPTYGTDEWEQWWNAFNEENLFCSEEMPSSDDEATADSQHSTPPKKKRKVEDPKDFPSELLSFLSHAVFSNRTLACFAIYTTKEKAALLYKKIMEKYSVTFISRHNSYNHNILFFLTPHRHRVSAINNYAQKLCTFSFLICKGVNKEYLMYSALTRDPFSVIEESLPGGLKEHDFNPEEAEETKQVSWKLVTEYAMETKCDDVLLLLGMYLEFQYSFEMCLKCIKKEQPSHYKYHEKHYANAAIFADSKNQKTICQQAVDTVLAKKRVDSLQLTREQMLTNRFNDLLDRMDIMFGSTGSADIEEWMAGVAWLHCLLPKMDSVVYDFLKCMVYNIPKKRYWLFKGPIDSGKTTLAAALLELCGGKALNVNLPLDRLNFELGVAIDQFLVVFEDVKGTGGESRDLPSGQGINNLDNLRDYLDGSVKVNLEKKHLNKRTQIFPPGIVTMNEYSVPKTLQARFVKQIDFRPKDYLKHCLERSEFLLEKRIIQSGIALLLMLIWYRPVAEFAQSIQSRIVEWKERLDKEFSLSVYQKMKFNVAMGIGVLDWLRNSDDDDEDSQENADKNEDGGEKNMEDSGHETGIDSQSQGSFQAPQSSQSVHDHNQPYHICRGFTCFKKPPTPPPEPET

For `Cc1n[nH]c(C)c1CCCCOc1ccc([N+](=O)[O-])cc1`, the IC50 [1] was > 59.6 µM (inactive), the IC50 [2] was > 59.6 µM (inactive) and the IC50 [3] was > 59.6 µM (inactive).
For `COc1ccc(-c2csc(NC(=S)NC(=O)c3cccs3)n2)cc1OC`, the EC50 [4] was 23.4 µM (active), the EC50 [5] was > 150 µM (not active) and the IC50 [6] was > 66.6 µM (inactive). For the same compound, the EC50 [7] was 74.3 µM (active) and the IC50 [8] was 7.27 µM (active).
For `CCOC(=O)c1c(C)n(-c2ccc(C)cc2)c2ccc(OCC(O)CNCC3CCCO3)cc12` (configuration not stated), the CC50 [9] was 39.7 µM (active), the IC50 [10] was 131 µM (active) and the EC50 [11] was > 60 µM (not active). For the same compound, the CC50 [12] was 13.2 µM (active), the EC50 [13] was 1.51 µM (active) and the IC50 [14] was > 20 µM (inactive).
For `CC(C)OCCCNc1nc(-c2ccccc2)nc2ccccc12`, the IC50 [15] was 22.9 µM (inactive) and the IC50 [16] was 11.7 µM (active).
For `Nc1nc(N)c(Cc2ccc(Cl)cc2Cl)c(N)n1`, the IC50 [15] was 11.9 µM (active) and the IC50 [16] was 7.44 µM (active).
With `CCCCN1C(=O)/C(=C/C=C/c2ccco2)C(=O)NC1=S` the IC50 [17] was 3.39 µM (active), the AC50 [18] was 4.72 µM (active) and the IC50 [19] was 7.95 µM (active). For the same compound, the IC50 [20] was 2.18 µM (active).
With `CC(C)Oc1ccc(Cc2nnc(S)n2Cc2ccccc2)cc1Cl` the IC50 [21] was 6.4 µM (active) and the IC50 [22] was 6.09 µM (active).
With `Cc1c(C)c2ccc(OCC(=O)N3CCC[C@@H]3C(=O)O)c(C)c2oc1=O` the IC50 [1] was > 59.6 µM (inactive), the IC50 [2] was > 59.6 µM (inactive) and the IC50 [3] was > 59.6 µM (inactive).
In the case of `CC(=O)Nc1cc(O)c2cccnc2n1`, the IC50 [15] is reported as 38.7 µM (inactive) and the IC50 [16] is reported as 25.9 µM (inactive).
For `CC(C)C[C@@H](CNCC(=O)[C@H](Cc1ccccc1)NC(=O)c1nc[nH]c1C(=O)N[C@H](CN)CC(C)C)NC(=O)c1[nH]cnc1C(=O)N[C@@H](CC(=O)O)C(=O)O`, the IC50 [6] was > 66.6 µM (inactive) and the IC50 [8] was 20.4 µM (inactive).
For `C#Cc1cccc(Nc2nc(NCc3ccccc3)nc3ccsc23)c1`, the IC50 [23] was 7.02 µM (active).
For `NS(=O)(=O)c1ccc(CCNc2nn3c(-c4cccc(OC(F)(F)F)c4)cnc3s2)cc1`, the AC50 [24] was 0.852 µM (active), the IC50 [23] was 6.96 µM (active) and the AC50 [25] was 3.93 µM (active). The AC50 [26] was 52.5 µM (active).
With `O=[N+]([O-])c1ccc(S(=O)(=O)N/N=C/c2ccc3c(c2)OCO3)cc1` the IC50 [21] was 5.55 µM (active) and the IC50 [22] was 5.36 µM (active).
In the case of `Cc1cc(=O)n2nc(-c3ccc(C(C)(C)C)cc3)cc2[nH]1`, the EC50 [11] is reported as > 60 µM (not active), the IC50 [21] is reported as 9.51 µM (active) and the EC50 [13] is reported as 0.646 µM (active). For the same compound, the IC50 [22] was 15 µM (active).

— ChEMBL document CHEMBL1201862, “PubChem BioAssay data set” (2004)
